The record followed here is ChEMBL document CHEMBL4725308, “MK-5204: An orally active β-1,3-glucan synthesis inhibitor” (Bioorg Med Chem Lett, 2020).

Data set [1] concerns Aspergillus fumigatus. In words: Antifungal activity against Aspergillus fumigatus MF5668 infected in DBA/2N mouse assessed as mouse survival at 6.25 mg/kg, ip bid administered for 7 days starting from 30 mins post infection and measured up to 21 days relative to control. Type of data set: functional. The conditions noted are these: 168 h, time 7 day.
The nature of data set [2]: Oral bioavailability in rhesus monkey. Type of data set: ADME, organism-based, Macaca mulatta. The settings on record: in vivo.
Data set [3] in a line: Oral bioavailability in rat. The class given is ADME, organism-based. The settings on record: in vivo.
A further data set has as its system Clavispora lusitaniae. In words: Antifungal activity against Clavispora lusitaniae MY1396 assessed as fungal growth inhibition. Type of data set: functional.
Data set [4] relates to Candida albicans. In words: Antifungal activity against Candida albicans MY1055 infected in DBA/2 mouse model assessed as log change in colony forming units in kidney at 6.5 mg/kg, po bid for 2 days and measured after 4 days by TOKA. The class given is functional. The settings on record: time 2 day.
Data set [5] concerns Aspergillus fumigatus. In words: Antifungal activity against Aspergillus fumigatus MF5668 infected in DBA/2N mouse assessed as mean survival days at 12.5 mg/kg, ip bid administered for 7 days starting from 30 mins post infection and measured up to 21 days relative to control. The class given is functional. The conditions noted are these: time 7 day.
Data set [6] is described as follows: Oral bioavailability in mouse. Type of data set: ADME, organism-based. The conditions noted are these: in vivo.
The nature of data set [7]: Clearance in rat. Type of data set: ADME. The conditions noted are these: in vivo.
In data set [8] the test system is Aspergillus fumigatus. In words: Antifungal activity against Aspergillus fumigatus MF5668 infected in DBA/2N mouse assessed as mean survival days at 3.125 mg/kg, ip bid administered for 7 days starting from 30 mins post infection and measured up to 21 days relative to control. The class given is functional. The conditions noted are these: time 7 day.
Data set [9] in a line: Oral bioavailability in dog. Type of data set: ADME, organism-based, Canis lupus familiaris. The settings on record: in vivo.
Data set [10] has as its system Candida albicans. In words: Antifungal activity against Candida albicans MY1055 infected in DBA mouse model assessed as log change in colony forming units in kidney at 12.5 mg/kg, po bid for 2 days and measured after 4 days by TOKA. Type of data set: functional. The conditions noted are these: time 2 day.
In data set [11] the test system is Candida albicans. In words: Antifungal activity against Candida albicans MY1055 infected in DBA/2N mouse model assessed as mouse survival at 12.5 mg/kg, ip bid for 7 days and measured post-last dose by TOKA relative to control. The class given is functional. The settings on record: 168 h, time 7 day.
A further data set deals with Pichia kudriavzevii. In words: Antifungal activity against Candida krusei ATCC 6258 assessed as fungal growth inhibition. Type of data set: functional.
The subject of data set [12] is Candida albicans. In words: Antifungal activity against Candida albicans MY1055 infected in DBA/2N mouse model assessed as mouse survival at 12.5 mg/kg, po bid for 7 days and measured post-last dose by TOKA relative to control. The class given is functional. The settings on record: 168 h, time 7 day.
Data set [13] can be described thus: Inhibition of beta-1,3-glucan synthase in Candida albicans MY1055 microsomal membrane using UDP-[3H]-glucose as substrate incubated for 2 hrs in presence of UTP by radioactivity-based assay. Type of data set: cell membranes.
Data set [14] in a line: Half life in rat. The class given is ADME. The settings on record: in vivo.
The nature of data set [15]: Half lie in mouse. The class given is ADME, organism-based. The conditions noted are these: in vivo.
Data set [16] relates to Aspergillus fumigatus. In words: Antifungal activity against Aspergillus fumigatus MF5668 infected in DBA/2N mouse assessed as mouse survival at 3.125 mg/kg, ip bid administered for 7 days starting from 30 mins post infection and measured up to 21 days relative to control. The conditions noted are these: 168 h, time 7 day. The class given is functional.
The subject of data set [17] is Aspergillus fumigatus. In words: Antifungal activity against Aspergillus fumigatus MF5668 assessed as fungal growth inhibition measured after 24 hrs by liquid microdilution method. The class given is functional. The settings on record: read-out: MEC.
Data set [18] relates to Candida albicans. In words: Antifungal activity against Candida albicans MY1055 infected in DBA/2N mouse model administered for 7 days by TOKA. The class given is functional. The settings on record: MY1055, 168 h, time 7 day.
A short description of data set [19]: Half life in rhesus monkey. Type of data set: ADME, Macaca mulatta. The settings on record: in vivo.
A short description of data set [20]: Half life in dog. The class given is ADME, Canis lupus familiaris. The conditions noted are these: in vivo.
The subject of data set [21] is Aspergillus fumigatus. In words: Antifungal activity against Aspergillus fumigatus MF5668 infected in DBA/2N mouse assessed as mouse survival at 1.56 mg/kg, ip bid administered for 7 days starting from 30 mins post infection and measured up to 21 days relative to control. The class given is functional. The settings on record: 168 h, time 7 day.
Data set [22] deals with Aspergillus fumigatus. In words: Antifungal activity against Aspergillus fumigatus MF5668 infected in DBA/2N mouse assessed as mouse survival at 12.5 mg/kg, ip bid administered for 7 days starting from 30 mins post infection and measured up to 21 days relative to control. The class given is functional. The conditions noted are these: 168 h, time 7 day.
In data set [23] the test system is Candida albicans. In words: Antifungal activity against Candida albicans MY1055 infected in DBA/2N mouse model assessed as mouse survival at 6.5 mg/kg, po bid for 7 days and measured post-last dose by TOKA relative to control. Type of data set: functional. The conditions noted are these: 168 h, time 7 day.
For data set [24], the system named is Candida albicans. In words: Antifungal activity against Candida albicans MY1055 assessed as fungal growth inhibition measured after 24 hrs in presence of mouse serum by liquid microdilution method. Type of data set: functional.
The test system of another data set is Nakaseomyces glabratus. In words: Antifungal activity against Candida glabrata MY1381 assessed as fungal growth inhibition. The class given is functional.
The nature of data set [25]: Clearance in mouse. The settings on record: in vivo. The class given is ADME, organism-based.
In data set [26] the test system is Aspergillus fumigatus. In words: Antifungal activity against Aspergillus fumigatus MF5668 infected in DBA/2N mouse assessed as mean survival days at 1.56 mg/kg, ip bid administered for 7 days starting from 30 mins post infection and measured up to 21 days relative to control. The conditions noted are these: time 7 day. The class given is functional.
Data set [27] deals with Candida albicans. In words: Antifungal activity against Candida albicans MY1055 infected in DBA/2N mouse model assessed as mouse survival at 25 mg/kg, po bid for 7 days and measured post-last dose by TOKA relative to control. Type of data set: functional. The settings on record: 168 h, time 7 day.
In the next data set the test system is Candida parapsilosis. In words: Antifungal activity against Candida parapsilosis ATCC 22019 assessed as fungal growth inhibition. Type of data set: functional. The settings on record: Lodderomyces parapsilosis.
Data set [28] has as its system Aspergillus fumigatus. In words: Antifungal activity against Aspergillus fumigatus MF5668 infected in DBA/2N mouse assessed as mean survival days at 6.25 mg/kg, ip bid administered for 7 days starting from 30 mins post infection and measured up to 21 days relative to control. The class given is functional. The conditions noted are these: time 7 day.
Data set [29] is described as follows: Clearance in rhesus monkey. Type of data set: ADME, Macaca mulatta. The conditions noted are these: in vivo.
Data set [30] concerns Candida albicans. In words: Antifungal activity against Candida albicans MY1055 assessed as fungal growth inhibition measured after 24 hrs by liquid microdilution method. The class given is functional.
The next data set has as its system Candida tropicalis. In words: Antifungal activity against Candida tropicalis MY1012 assessed as fungal growth inhibition. Type of data set: functional.
Data set [31] relates to Candida albicans. In words: Antifungal activity against Candida albicans MY1055 infected in DBA/2 mouse model assessed as log change in colony forming units in kidney at 25 mg/kg, po bid for 2 days and measured after 4 days by TOKA. The class given is functional. The settings on record: time 2 day.
Data set [32] in a line: Clearance in dog. The class given is ADME, Canis lupus familiaris. The conditions noted are these: in vivo.

Molecules are shown by their SMILES. Values after ≈ are worked out from the molar mass of the structure shown. A value given as a limit tells only on which side of the number the result lay.

As for `CC(C)[C@@H](C)[C@@]1(C)CC[C@]2(C)[C@H]3CC[C@@H]4[C@@]5(COC[C@]4(C)[C@@H](OC[C@](C)(N)C(C)(C)C)[C@H](n4ncnc4C(N)=O)C5)C3=CC[C@@]2(C)[C@@H]1C(=O)O`, the survival at 6.25 mg/kg in the data set on Aspergillus fumigatus [1] was 40%. The bioavailability was found to be 12% in [2], 17% in data set [3], 12% in data set [6] and 35% in [9]. The MIC with Clavispora lusitaniae worked out at 0.125 µg/mL (≈ 0.18 µM); in the data set with Pichia kudriavzevii, 1 µg/mL (≈ 1.44 µM); with Candida albicans [24], 2 µg/mL; in the data set with Nakaseomyces glabratus it was 0.125 µg/mL (≈ 0.18 µM); in the data set with Candida parapsilosis, 0.06 µg/mL (≈ 0.0862 µM); with Candida albicans [30], 0.06 µg/mL (≈ 0.0862 µM). The MIC in the data set with Candida tropicalis was 0.5 µg/mL (≈ 0.718 µM). The Activity in the data set on Candida albicans [4] was -1.5 log CFU; in the data set on Candida albicans [10], -2.5 log CFU; with Candida albicans [31], -2.2 log CFU. Besides, the MSD in the data set on Aspergillus fumigatus [5] was found to be 14.4 days; with Aspergillus fumigatus [8], 7.3 days; in the data set on Aspergillus fumigatus [26], 6.5 days; in the data set with Aspergillus fumigatus [28], 12.5 days. In addition, the clearance in data set [7] was determined as 6 mL/min/kg; in [25], 11 mL/min/kg; in [29], 4 mL/min/kg; in data set [32], 2 mL/min/kg. Besides, the survival at 12.5 mg/kg with Candida albicans [11] was found to be 100%; with Candida albicans [12], 100%; in the data set on Aspergillus fumigatus [22], 60%. Besides, the IC50 in data set [13] was found to be 0.003 µg/mL. In addition, the half-life is 5.5 h in data set [14], 5.1 h in data set [15], 8.5 h in data set [19] and 12.3 h in data set [20]. For the same molecule, the survival at 3.125 mg/kg in the data set with Aspergillus fumigatus [16] worked out at 10%. The minimal effective concentration with Aspergillus fumigatus [17] is less than 0.03 µg/mL. This molecule displayed an ED99 in the data set on Candida albicans [18] of 6.4 mg/kg. Moreover, the survival at 1.56 mg/kg in the data set on Aspergillus fumigatus [21] was 0%. The survival at 6.5 mg/kg with Candida albicans [23] turned out to be 100%. In addition, the survival at 25 mg/kg in the data set on Candida albicans [27] was found to be 80%.
On to `CCN[C@@](C)(CO[C@H]1[C@H](n2ncnc2C(N)=O)C[C@@]23COC[C@@]1(C)[C@@H]2CC[C@H]1C3=CC[C@@]2(C)[C@H](C(=O)O)[C@@](C)([C@H](C)C(C)C)CC[C@]12C)C(C)C`, for which the Activity is reported as -1.1 log CFU with Candida albicans [4], -1.1 log CFU in the data set on Candida albicans [10] and -1.8 log CFU in the data set on Candida albicans [31]. The bioavailability in [6] came to 17%. For the same molecule, the IC50 in [13] worked out at 0.011 µg/mL. Besides, the minimal effective concentration in the data set on Aspergillus fumigatus [17] was less than 0.03 µg/mL. The MIC with Candida albicans [24] came to 16 µg/mL; in the data set with Candida albicans [30], 0.25 µg/mL (≈ 0.352 µM).
As for `CC(C)NC(=O)c1ncnn1[C@@H]1C[C@@]23COC[C@@](C)([C@@H]2CC[C@H]2C3=CC[C@@]3(C)[C@H](C(=O)O)[C@@](C)([C@H](C)C(C)C)CC[C@]23C)[C@H]1OC[C@](C)(N)C(C)C`, the Activity was -0.4 log CFU in the data set on Candida albicans [4], -1.8 log CFU in the data set with Candida albicans [10] and -2.3 log CFU with Candida albicans [31]. The molecule also came in with a bioavailability in [6] of 10%. Further, the IC50 in [13] turned out to be 0.01 µg/mL. Also, the minimal effective concentration in the data set on Aspergillus fumigatus [17] was less than 0.03 µg/mL. For the same molecule, the MIC is 16 µg/mL with Candida albicans [24] and 0.25 µg/mL (≈ 0.345 µM) in the data set with Candida albicans [30].
For the molecule `CC(C)[C@@H](C)[C@@]1(C)CC[C@]2(C)[C@H]3CC[C@@H]4[C@@]5(COC[C@]4(C)[C@@H](OC[C@](C)(N)C(C)C)[C@H](n4ncnc4Cl)C5)C3=CC[C@@]2(C)[C@@H]1C(=O)O`, the Activity in the data set on Candida albicans [4] was -1.2 log CFU; in the data set on Candida albicans [10], -2.2 log CFU; in the data set with Candida albicans [31] it was -1.9 log CFU. Also, the bioavailability in data set [6] was 9%. Moreover, the IC50 in data set [13] was 0.003 µg/mL. Also, in the data set with Aspergillus fumigatus [17], the minimal effective concentration was less than 0.03 µg/mL. Besides, the MIC amounted to 8 µg/mL in the data set with Candida albicans [24] and 0.06 µg/mL (≈ 0.0891 µM) with Candida albicans [30].
For `CCCNC(=O)c1ncnn1[C@@H]1C[C@@]23COC[C@@](C)([C@@H]2CC[C@H]2C3=CC[C@@]3(C)[C@H](C(=O)O)[C@@](C)([C@H](C)C(C)C)CC[C@]23C)[C@H]1OC[C@](C)(N)C(C)C`, the figures for the Activity in the data set on Candida albicans [4], in the data set on Candida albicans [10] and in the data set on Candida albicans [31] were -1.1 log CFU, -1.6 log CFU and -2.2 log CFU, respectively. Moreover, the bioavailability in data set [6] is 33%. The IC50 in data set [13] is 0.007 µg/mL. The minimal effective concentration in the data set on Aspergillus fumigatus [17] was less than 0.03 µg/mL. Besides, the MIC in the data set on Candida albicans [24] worked out at 16 µg/mL; in the data set on Candida albicans [30], 0.5 µg/mL (≈ 0.691 µM).
